PubChem BioAssay AID2060512 (Molecular Pharmacology Branch, DTP, NCI, 2025)

Test system: 186277-243-T-J2-PDC complex spheroid viability
Assay: Anticancer human tumor 186277-243-T-J2-PDC patient-derived colon adenocarcinoma cell line growth inhibition [GQUAD]
Conditions: for IC50: curve of first compound; for viability, T/C: stronger effect = lower value; active means viability on the fitted dose curve at most 10% of control; inactive means the rest
How it was run: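 Viability of tumor cells grown as complex spheroids with endothelial and stromal cells, exposed to drug combinations. Top concentration at or near clinical Cmax (else 10 microM), diluted in half-log increments.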

[1] = second compound 0.0316 µM, first compound 0.0316 µM
[2] = second compound 0.0316 µM, first compound 0.1 µM
[3] = second compound 0.0316 µM, first compound 0.316 µM
[4] = second compound 0.0316 µM, first compound 1 µM
[5] = second compound 0.0316 µM, first compound 3.16 µM
[6] = second compound 0.0316 µM, first compound 10 µM
[7] = second compound 0.1 µM, first compound 0.0316 µM
[8] = second compound 0.1 µM, first compound 0.1 µM
[9] = second compound 0.1 µM, first compound 0.316 µM
[10] = second compound 0.1 µM, first compound 1 µM
[11] = second compound 0.1 µM, first compound 3.16 µM
[12] = second compound 0.1 µM, first compound 10 µM
[13] = second compound 0.316 µM, first compound 0.0316 µM
[14] = second compound 0.316 µM, first compound 0.1 µM
[15] = second compound 0.316 µM, first compound 0.316 µM
[16] = second compound 0.316 µM, first compound 1 µM
[17] = second compound 0.316 µM, first compound 3.16 µM
[18] = second compound 0.316 µM, first compound 10 µM
[19] = second compound 1 µM, first compound 0.0316 µM
[20] = second compound 1 µM, first compound 0.1 µM
[21] = second compound 1 µM, first compound 0.316 µM
[22] = second compound 1 µM, first compound 1 µM
[23] = second compound 1 µM, first compound 3.16 µM
[24] = second compound 1 µM, first compound 10 µM
[25] = second compound 3.16 µM, first compound 0.0316 µM
[26] = second compound 3.16 µM, first compound 0.1 µM
[27] = second compound 3.16 µM, first compound 0.316 µM
[28] = second compound 3.16 µM, first compound 1 µM
[29] = second compound 3.16 µM, first compound 3.16 µM
[30] = second compound 3.16 µM, first compound 10 µM
[31] = second compound 10 µM, first compound 0.0316 µM
[32] = second compound 10 µM, first compound 0.1 µM
[33] = second compound 10 µM, first compound 0.316 µM
[34] = second compound 10 µM, first compound 1 µM
[35] = second compound 10 µM, first compound 3.16 µM
[36] = second compound 10 µM, first compound 10 µM
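Wherever viability, T/C is given: 100% = DMSO vehicle control viability.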

CC1COCCN1c1cc(C2(O)CC3CCC(C2)O3)c2cnn(-c3ccn[nH]3)c2n1 (stereo not drawn) + CN(C)c1ccc(Nc2c3ccc(NC(=O)CCN4CCCC4)cc3nc3cc(NC(=O)CCN4CCCC4)ccc23)cc1
< 0.0316 µM: IC50 (second compound 1 µM) | IC50 (second compound 3.16 µM) | IC50 (second compound 10 µM)
0.0347 µM: IC50 (second compound 0.316 µM)
0.0326 µM: IC50 (second compound 0.0316 µM)
active: viability, T/C [2] 8.79% | viability, T/C [3] 6.01% | viability, T/C [4] 4% | viability, T/C [5] 5.01% | viability, T/C [6] 3.88% | viability, T/C [9] 7.24% | viability, T/C [10] 3.82% | viability, T/C [11] 4.81% | viability, T/C [12] 3.87% | viability, T/C [14] 8.92% | viability, T/C [15] 4.46% | viability, T/C [16] 3.99% | viability, T/C [17] 5.18% | viability, T/C [18] 3.41% | viability, T/C [20] 9.66% | viability, T/C [21] 5.45% | viability, T/C [22] 4.14% | viability, T/C [23] 5.22% | viability, T/C [24] 3.81% | viability, T/C [27] 5.73% | viability, T/C [28] 3.69% | viability, T/C [29] 4.72% | viability, T/C [30] 3.34% | viability, T/C [33] 6.88% | viability, T/C [34] 3% | viability, T/C [35] 3.63% | viability, T/C [36] 2.56%
inactive: viability, T/C [1] 51.2% | viability, T/C [7] 51.8% | viability, T/C [8] 12% | viability, T/C [13] 53.7% | viability, T/C [19] 42.9% | viability, T/C [25] 47% | viability, T/C [26] 12.8% | viability, T/C [31] 46.5% | viability, T/C [32] 11.9%
0.0331 µM: IC50 (second compound 0.1 µM)

CCCS(=O)(=O)Nc1ccc(F)c(C(=O)c2c[nH]c3ncc(-c4ccc(Cl)cc4)cc23)c1F + CN(C)c1ccc(Nc2c3ccc(NC(=O)CCN4CCCC4)cc3nc3cc(NC(=O)CCN4CCCC4)ccc23)cc1
5.82 µM: IC50 (second compound 10 µM)
6.44 µM: IC50 (second compound 0.1 µM)
5.89 µM: IC50 (second compound 0.0316 µM)
6.28 µM: IC50 (second compound 3.16 µM)
6.24 µM: IC50 (second compound 0.316 µM)
6.27 µM: IC50 (second compound 1 µM)
inactive: viability, T/C [1] 97.2% | viability, T/C [2] 101% | viability, T/C [3] 90.2% | viability, T/C [4] 78.8% | viability, T/C [5] 77.9% | viability, T/C [6] 30.3% | viability, T/C [7] 95.2% | viability, T/C [8] 81.4% | viability, T/C [9] 83.6% | viability, T/C [10] 84.6% | viability, T/C [11] 95.8% | viability, T/C [12] 26.2% | viability, T/C [13] 89.1% | viability, T/C [14] 102% | viability, T/C [15] 86.3% | viability, T/C [16] 87% | viability, T/C [17] 82.7% | viability, T/C [18] 27.7% | viability, T/C [19] 90.3% | viability, T/C [20] 93.1% | viability, T/C [21] 84.4% | viability, T/C [22] 98.9% | viability, T/C [23] 83% | viability, T/C [24] 26.7% | viability, T/C [25] 92.2% | viability, T/C [26] 105% | viability, T/C [27] 86.5% | viability, T/C [28] 90.4% | viability, T/C [29] 82.5% | viability, T/C [30] 28.4% | viability, T/C [31] 96.9% | viability, T/C [32] 91.1% | viability, T/C [33] 97.9% | viability, T/C [34] 87.7% | viability, T/C [35] 82.3% | viability, T/C [36] 22%

C=CC(=O)N1CCN(c2nc(=O)n(-c3c(C)ccnc3C(C)C)c3nc(-c4c(O)cccc4F)c(F)cc23)C(C)C1 (stereo not drawn) + Cc1[nH]c2ccc(F)cc2c1-c1nc2c3cccnc3c3ncccc3c2[nH]1
> 10 µM: IC50 (second compound 0.0316 µM) | IC50 (second compound 0.1 µM) | IC50 (second compound 0.316 µM) | IC50 (second compound 1 µM) | IC50 (second compound 3.16 µM) | IC50 (second compound 10 µM)
inactive: viability, T/C [1] 92.4% | viability, T/C [2] 87.1% | viability, T/C [3] 92.5% | viability, T/C [4] 85.2% | viability, T/C [5] 107% | viability, T/C [6] 94.9% | viability, T/C [7] 95.7% | viability, T/C [8] 97% | viability, T/C [9] 101% | viability, T/C [10] 78.5% | viability, T/C [11] 113% | viability, T/C [12] 92.8% | viability, T/C [13] 98.9% | viability, T/C [14] 110% | viability, T/C [15] 89.3% | viability, T/C [16] 91.3% | viability, T/C [17] 97.2% | viability, T/C [18] 88.7% | viability, T/C [19] 98.1% | viability, T/C [20] 88.4% | viability, T/C [21] 107% | viability, T/C [22] 87.6% | viability, T/C [23] 111% | viability, T/C [24] 96.3% | viability, T/C [25] 84% | viability, T/C [26] 96.2% | viability, T/C [27] 92% | viability, T/C [28] 96% | viability, T/C [29] 108% | viability, T/C [30] 96% | viability, T/C [31] 94% | viability, T/C [32] 99.7% | viability, T/C [33] 99.1% | viability, T/C [34] 109% | viability, T/C [35] 102% | viability, T/C [36] 80.8%

Nc1ccn(C2OC(CO)C(O)C2(F)F)c(=O)n1 (stereo not drawn) + Cc1cnc(CNC(=O)c2c(=O)c3ccc(N4CCCN(C)CC4)nc3n3c2sc2ccccc23)cn1
inactive: viability, T/C [1] 21.2% | viability, T/C [2] 13.3% | viability, T/C [3] 12.3% | viability, T/C [4] 11.9% | viability, T/C [5] 12.2% | viability, T/C [6] 12.8% | viability, T/C [7] 27.1% | viability, T/C [8] 17.6% | viability, T/C [9] 15.3% | viability, T/C [10] 12.9% | viability, T/C [11] 15.4% | viability, T/C [12] 15.9% | viability, T/C [13] 36% | viability, T/C [14] 28.4% | viability, T/C [15] 21.5% | viability, T/C [16] 16.8% | viability, T/C [17] 18.6% | viability, T/C [18] 16% | viability, T/C [19] 32.6% | viability, T/C [20] 30.2% | viability, T/C [21] 22.8% | viability, T/C [22] 21.4% | viability, T/C [23] 19.9% | viability, T/C [24] 17.7% | viability, T/C [25] 33.1% | viability, T/C [26] 24.8% | viability, T/C [27] 22.6% | viability, T/C [28] 19.5% | viability, T/C [29] 19.3% | viability, T/C [30] 16.5% | viability, T/C [31] 34.3% | viability, T/C [32] 25.1% | viability, T/C [33] 25.4% | viability, T/C [34] 18.7% | viability, T/C [35] 21.4% | viability, T/C [36] 19.2%
< 0.0316 µM: IC50 (second compound 0.0316 µM) | IC50 (second compound 0.1 µM) | IC50 (second compound 0.316 µM) | IC50 (second compound 1 µM) | IC50 (second compound 3.16 µM) | IC50 (second compound 10 µM)
